Measurements taken from patent publication US11021457B2, “Class of isoindolone-imide ring-1,3-dione-2-ene compounds, composition and use thereof” (WIGEN BIOMEDICINE TECHNOLOGY (SHANGHAI) CO., LTD., priority 2017, dated 2021).
Like-named read-outs stand apart in the source and are kept apart here.

Experiments:
K562 = test: Inhibition of tumor cell proliferation, CellTiter-Glo, K562; format: cell-based; conditions: compound concentration 50 μM, 72 hours
How it was run: (§1)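 Compound tested at 50 μM for 72 h, read by CellTiter-Glo. Survival rate = (treated−blank)/(control−blank) RLU ×100, binned as +++ ≤30%, ++ >30-≤60%, + 60-<90%. Seeding 2000-10000 cells/well depending on growth rate.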

SU-DHL6 = test: Inhibition of tumor cell proliferation, CellTiter-Glo, SU-DHL6; format: cell-based; conditions: compound concentration 50 μM, 72 hours
How it was run: as §1

BxPC-3 = test: Inhibition of tumor cell proliferation, CellTiter-Glo, BxPC-3; format: cell-based; conditions: compound concentration 50 μM, 72 hours
How it was run: as §1

A549 = test: Inhibition of tumor cell proliferation, CellTiter-Glo, A549; format: cell-based; conditions: compound concentration 50 μM, 72 hours
How it was run: as §1

MDA-MB-453 = test: Inhibition of tumor cell proliferation, CellTiter-Glo, MDA-MB-453; format: cell-based; conditions: compound concentration 50 μM, 72 hours
How it was run: as §1

RPMI-8226 = test: Inhibition of tumor cell proliferation, CellTiter-Glo, RPMI-8226; format: cell-based; conditions: compound concentration 50 μM, 72 hours
How it was run: as §1

LC3B = LC3B (Homo sapiens (Human), UniProt Q9GZQ8); test: Fluorescence polarization experiment targeting LC3B (GST-LC3B with FITC-labeled peptide)
[1] = GST-LC3B 180 nM, FITC-labeled peptide 18 nM, 25° C.

CCOC(=O)C1C(=O)C(=CNc2cccc3c2C(=O)N(C2CCC(=O)NC2=O)C3=O)C(=O)CC1c1cccc2[nH]ccc12 (stereo not shown) [Compound 26]
cell survival rate (%) at 50 µM (K562; Homo sapiens, K562, read-out: Inhibitory activity against proliferation (cell survival rate) K562): 60 to 90% | cell survival rate (% of control) at 50 µM (SU-DHL6; Homo sapiens, SU-DHL-6, read-out: Inhibitory activity against proliferation (cell survival rate) SU-DHL6): 60 to 90% | cell survival rate (%) at 50 µM (BxPC-3; Homo sapiens, BXPC-3, read-out: Inhibitory activity against proliferation (cell survival rate) BxPC-3): 60 to 90% | cell survival rate (% of control) at 50 µM (A549; Homo sapiens, A549, read-out: Inhibitory activity against proliferation (cell survival rate) A549): 60 to 90% | cell survival rate (%) at 50 µM (MDA-MB-453; Homo sapiens, MDA-MB-453, read-out: Inhibitory activity against proliferation (cell survival rate) MDA-MB-453): 60 to 90% | cell survival rate (% of control) at 50 µM (RPMI-8226; Homo sapiens, RPMI-8226, read-out: Inhibitory activity against proliferation (cell survival rate) RPMI-8226): 60 to 90% | IC50 (LC3B): < 3 µM

O=C1CCC(N2C(=O)c3cccc(NC=C4C(=O)CC(c5cccc6[nH]ccc56)CC4=O)c3C2=O)C(=O)N1 (stereo not shown) [Compound 5]
Inhibitory activity against proliferation (cell survival rate) K562 (K562): + (60≤survival rate (%)<90) | Inhibitory activity against proliferation (cell survival rate) SU-DHL6 (SU-DHL6): + (60≤survival rate (%)<90) | Inhibitory activity against proliferation (cell survival rate) BxPC-3 (BxPC-3): + (60≤survival rate (%)<90) | Inhibitory activity against proliferation (cell survival rate) A549 (A549): +++ (survival rate (%)≤30) | Inhibitory activity against proliferation (cell survival rate) MDA-MB-453 (MDA-MB-453): +++ (survival rate (%)≤30) | Inhibitory activity against proliferation (cell survival rate) RPMI-8226 (RPMI-8226): + (60≤survival rate (%)<90) | IC50 (LC3B; [1]): < 3 µM

O=C1CCC(N2Cc3c(NC(=C4C(=O)CC(c5ccccc5)CC4=O)c4ccccc4)cccc3C2=O)C(=O)N1 (stereo not shown) [Compound 75]
Inhibitory activity against proliferation (cell survival rate) K562 (K562): +++ (survival rate (%)≤30) | Inhibitory activity against proliferation (cell survival rate) SU-DHL6 (SU-DHL6): +++ (survival rate (%)≤30) | Inhibitory activity against proliferation (cell survival rate) BxPC-3 (BxPC-3): + (60≤survival rate (%)<90) | Inhibitory activity against proliferation (cell survival rate) A549 (A549): +++ (survival rate (%)≤30) | Inhibitory activity against proliferation (cell survival rate) MDA-MB-453 (MDA-MB-453): +++ (survival rate (%)≤30) | Inhibitory activity against proliferation (cell survival rate) RPMI-8226 (RPMI-8226): +++ (survival rate (%)≤30) | IC50 (LC3B; [1]): 100 to 1000 µM

O=C1CCC(N2Cc3c(NC=C4C(=O)CC(c5c[nH]c6ccccc56)CC4=O)cccc3C2=O)C(=O)N1 (stereo not shown) [Compound 38]
Inhibitory activity against proliferation (cell survival rate) K562 (K562): +++ (survival rate (%)≤30) | Inhibitory activity against proliferation (cell survival rate) SU-DHL6 (SU-DHL6): +++ (survival rate (%)≤30) | Inhibitory activity against proliferation (cell survival rate) BxPC-3 (BxPC-3): ++ (30<survival rate (%)≤60) | Inhibitory activity against proliferation (cell survival rate) A549 (A549): +++ (survival rate (%)≤30) | Inhibitory activity against proliferation (cell survival rate) MDA-MB-453 (MDA-MB-453): +++ (survival rate (%)≤30) | Inhibitory activity against proliferation (cell survival rate) RPMI-8226 (RPMI-8226): +++ (survival rate (%)≤30) | IC50 (LC3B; [1]): < 3 µM

O=C1CCC(N2Cc3c(NC(=O)CNC=C4C(=O)CC(c5ccccc5)CC4=O)cccc3C2=O)C(=O)N1 (stereo not shown) [Compound 42]
Inhibitory activity against proliferation (cell survival rate) K562 (K562): ++ (30<survival rate (%)≤60) | Inhibitory activity against proliferation (cell survival rate) SU-DHL6 (SU-DHL6): + (60≤survival rate (%)<90) | Inhibitory activity against proliferation (cell survival rate) BxPC-3 (BxPC-3): + (60≤survival rate (%)<90) | Inhibitory activity against proliferation (cell survival rate) A549 (A549): ++ (30<survival rate (%)≤60) | Inhibitory activity against proliferation (cell survival rate) MDA-MB-453 (MDA-MB-453): + (60≤survival rate (%)<90) | Inhibitory activity against proliferation (cell survival rate) RPMI-8226 (RPMI-8226): ++ (30<survival rate (%)≤60) | IC50 (LC3B; [1]): 100 to 1000 µM

O=C1CCC(N2Cc3c(NC=C4C(=O)CC(c5c(C(F)(F)F)ccc(Cl)c5F)CC4=O)cccc3C2=O)C(=O)N1 (stereo not shown) [Compound 142]
Inhibitory activity against proliferation (cell survival rate) K562 (K562): +++ (survival rate (%)≤30) | Inhibitory activity against proliferation (cell survival rate) SU-DHL6 (SU-DHL6): +++ (survival rate (%)≤30) | Inhibitory activity against proliferation (cell survival rate) BxPC-3 (BxPC-3): + (60≤survival rate (%)<90) | Inhibitory activity against proliferation (cell survival rate) A549 (A549): + (60≤survival rate (%)<90) | Inhibitory activity against proliferation (cell survival rate) MDA-MB-453 (MDA-MB-453): +++ (survival rate (%)≤30) | Inhibitory activity against proliferation (cell survival rate) RPMI-8226 (RPMI-8226): +++ (survival rate (%)≤30) | IC50 (LC3B; [1]): < 3 µM

O=C1CCC(N2Cc3c(NC(=O)CCNC=C4C(=O)CC(c5ccccc5)CC4=O)cccc3C2=O)C(=O)N1 (stereo not shown) [Compound 45]
Inhibitory activity against proliferation (cell survival rate) K562 (K562): + (60≤survival rate (%)<90) | Inhibitory activity against proliferation (cell survival rate) SU-DHL6 (SU-DHL6): + (60≤survival rate (%)<90) | Inhibitory activity against proliferation (cell survival rate) BxPC-3 (BxPC-3): + (60≤survival rate (%)<90) | Inhibitory activity against proliferation (cell survival rate) A549 (A549): + (60≤survival rate (%)<90) | Inhibitory activity against proliferation (cell survival rate) MDA-MB-453 (MDA-MB-453): + (60≤survival rate (%)<90) | Inhibitory activity against proliferation (cell survival rate) RPMI-8226 (RPMI-8226): + (60≤survival rate (%)<90) | IC50 (LC3B; [1]): 100 to 1000 µM
